Legend:
[1] = system: SW620 cells (human metastatic colon cancer); experiment: MTT assay, SW620 cells; format: cell-based; conditions: SW-620, 72 h, mean ± SD
Source text: (§1) Primary and metastatic colon cancer (SW480, SW620), metastatic prostate cancer (PC3), and human immortal keratinocyte (HaCaT) cell lines and immortal microvascular endothelial cells (HMEC-1) were obtained from the American Type Culture Collection (ATCC, Rockville, USA) and cultured in recommended medium, namely, MEM (Biowest SAS, France) for the SW480 and SW620 cells, RPMI 1640 (Biowest SAS, Nuaillé, France) for PC3, DMEM (Biowest SAS, France) for HaCaT and MCDB 131 (PAN BioTech, Aidenbach, Germany) for HMEC-1. The SW480 and SW620 cell lines were initiated by A. Leibovitz et al. and derived from a human primary colon adenocarcinoma and lymph node metastasis of the same patient. respectively. PC3 cell cells were initiated from a bone metastasis of a human prostatic adenocarcinoma. HaCaT cells were obtained from adult human skin, while HMEC-1 cells were established from the dermis of a human neonate. Cells were cultured in recommended medium supplemented with 10% FBS (Biowest SAS, Nuaillé, France), penicillin (100 U/mL), streptomycin […] (Gibco Life Technologies, Waltham MA, USA) and incubated at 37 °C under 5% CO2. The culture medium of HMEC-1 cells was additionally supplemented with glutamine (1 mM) and microvascular growth supplement (5%) (MVGS; Gibco, USA). The cells were cultured until 80% confluency was reached, harvested by treatment with 0.25% trypsin 0.02% EDTA (Gibco Life Technologies, Waltham, MA, USA) and subsequently used for further experiments.
(§2) Cell viability was estimated using a conversion of 3-(4,5-dimethylthiazol-2-yl)-2,5-diphenyltetrazolium bromide salt (MTT) to insoluble formazan crystals by mitochondrial dehydrogenases, present in living cells. Cells were cultured in 96-well plates (l × 10^4 cells per well) and incubated for 24 h at 37 °C under 5% CO2. Next, the cells were treated with various concentrations of the tested compounds (ranging from 10 to 180 μM) and incubated for 72 h at 37 °C under 5% CO2. Untreated cells were used as the control. Next, the medium was removed, MTT solution (0.5 mg/mL) was added to each well, and the cells were incubated for 4 h at 37 °C under 5% CO2. After that, the obtained formazan crystals were dissolved in DMSO and isopropanol (1:1, v/v). The optical density of the dissolved crystals was measured at a wavelength of 570 nm using a UVM 340 reader (ASYS Hitech GmbH, Austria). Cell viability was presented as a percent of MTT reduced in treated cells versus control cells. The relative MTT level (%) was calculated as [A]/[B] × 100, where [A] is the absorbance of the test sample, and [B] is the absorbance of the control sample. The IC50 value was estimated using CompuSyn version 1.0.

[2] = system: SW480 cells (human primary colon cancer); experiment: MTT assay, SW480 cells; format: cell-based; conditions: for IC50: Homo sapiens, SW480, MTT, 72 h, mean ± SD; for effectiveness against SW480 cells (in words): based on IC50, MTT 72 h
Source text: as §1, §2

[3] = system: HaCaT cells (human immortal keratinocyte); experiment: MTT assay, HaCaT normal cells; format: cell-based; conditions: for IC50: Homo sapiens, HaCaT, MTT, 72 h, mean ± SD, normal cells
Source text: as §1, §2

[4] = system: PC3 cells (human metastatic prostate cancer); experiment: MTT assay, PC3 cells; format: cell-based; conditions: for IC50: Homo sapiens, PC-3, MTT, 72 h, mean ± SD
Source text: as §1, §2

[5] = system: panel of 60 human cancer cell lines; parameters: method as in PMID 33387732; conditions: dose of 10 µM ref 14; cited from earlier work
human erythrocytes = experiment: Determination of hemolytic activity; format: cell-based; conditions: 10^−6 or 10^−5 M, 37 °C, 30 min, PBS
Procedure: The hemolysis experiment was performed according to the previous report and was approved by the Bioethics Commission at the Lower Silesian Medical Chamber (1/PNHAB/2018). Freshly isolated human erythrocytes were incubated with compound 4 dissolved in DMSO (final concentration of 10^−6 or 10^−5 M) in PBS buffer at 37 °C for 30 min. The samples were then centrifuged and the absorbance of hemoglobin in the supernatants was measured at 540 nm. Additionally, negative (erythrocytes in PBS buffer), positive (erythrocytes in distilled water), and DMSO controls were also performed.

[6] = system: HMEC-1 cells (human immortal microvascular endothelial cells); experiment: MTT assay, HMEC-1 normal cells; format: cell-based; conditions: 72 h, mean ± SD
Source text: Primary and metastatic colon cancer (SW480, SW620), metastatic prostate cancer (PC3), and human immortal keratinocyte (HaCaT) cell lines and immortal microvascular endothelial cells (HMEC-1) were obtained from the American Type Culture Collection (ATCC, Rockville, USA) and cultured in recommended medium, namely, MEM (Biowest SAS, France) for the SW480 and SW620 cells, RPMI 1640 (Biowest SAS, Nuaillé, France) for PC3, DMEM (Biowest SAS, France) for HaCaT and MCDB 131 (PAN BioTech, Aidenbach, Germany) for HMEC-1. The SW480 and SW620 cell lines were initiated by A. Leibovitz et al. and derived from a human primary colon adenocarcinoma and lymph node metastasis of the same patient. respectively. PC3 cell cells were initiated from a bone metastasis of a human prostatic adenocarcinoma. […]
Cell viability was estimated using a conversion of 3-(4,5-dimethylthiazol-2-yl)-2,5-diphenyltetrazolium bromide salt (MTT) to insoluble formazan crystals by mitochondrial dehydrogenases, present in living cells. […] The optical density of the dissolved crystals was measured at a wavelength of 570 nm using a UVM 340 reader (ASYS Hitech GmbH, Austria). […] The relative MTT level (%) was calculated as [A]/[B] × 100, where [A] is the absorbance of the test sample, and [B] is the absorbance of the control sample. […]

[7] = target: T1, E. coli TP (thymidine phosphorylase, TP/PD-ECGF) (Escherichia coli, UniProt P07650); experiment: Thymidine phosphorylase inhibition; format: biochemical; conditions: 100 µM screening concentration
T1 construct: purchased Sigma T6632
T1 sequence (P07650 whole entry): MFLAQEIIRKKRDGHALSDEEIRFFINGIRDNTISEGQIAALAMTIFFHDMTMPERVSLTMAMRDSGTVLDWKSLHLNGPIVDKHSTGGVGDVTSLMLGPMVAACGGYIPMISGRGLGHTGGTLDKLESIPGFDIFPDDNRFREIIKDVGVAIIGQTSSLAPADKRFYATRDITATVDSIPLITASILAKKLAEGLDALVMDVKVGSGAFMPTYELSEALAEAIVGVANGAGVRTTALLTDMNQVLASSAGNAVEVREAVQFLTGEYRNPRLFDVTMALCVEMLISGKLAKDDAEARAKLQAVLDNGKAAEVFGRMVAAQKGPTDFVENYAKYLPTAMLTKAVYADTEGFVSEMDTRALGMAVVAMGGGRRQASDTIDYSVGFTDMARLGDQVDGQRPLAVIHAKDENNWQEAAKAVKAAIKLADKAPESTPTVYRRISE
Procedure: TP/PD-ECGF (E. coli TP (Sigma T6632)) activity was determined by measuring the absorbance at 290 nm spectrophotometrically, according to the manufacturer′s procedure [25]. Briefly the reaction mixture of 145 µL of potassium phosphate buffer (pH 7.4), 20 µL of 1.5 mM Thymidine 50 monophosphate solution as substrate, and 30 µL of an enzyme (E. coli TP, 0.05 and 0.002 U) was incubated with 5 µL of test materials for 10 min at 25 °C in a 96-well, flat bottom microplate (200 µL). Readings were taking by a microplate reader (SpectraMax Plus384, USA) at 290 nm. The readings were taken continuously after 10, 20, and 30 min by a microplate reader. All assays were performed in triplicate.

Row | SMILES | IC50 [1] | IC50 [2] | IC50 [3] | IC50 [4] | growth inhibition (in words) [5] | effectiveness against SW480 cells (in words) [2] | growth-inhibitory potency against PC3 (in words) ([4]; MTT 72 h) | melting point | hemolytic activity against human red blood cells (human erythrocytes) | IC50 [6] | inhibition of thymidine phosphorylase activity [7] | cytotoxic effect on HaCaT (in words) ([3]; 72-h exposure)
1 | CC(=O)c1ccc(N2CCN(CCCCCn3ccn4c5c(=O)n(C)c(=O)n(C)c5nc34)CC2)cc1 [Compound 11, 8-(5-(4-(4-Acetylphenyl)piperazin-1-yl)pentyl)-1,3-dimethyl-1H-imidazo[2,1-f]purine-2,4(3H,8H)-dione] | 97.7 ± 10.7 µM | > 200 µM | 58.6 ± 4.91 µM | 60.28 ± 0.4 µM | – | – | – | – | – | – | – | –
2 | COc1cccc2c1C(=O)c1c(O)c3c(c(O)c1C2=O)C[C@@](O)(C(=O)CO)C[C@@H]3O[C@H]1C[C@H](N)[C@H](O)[C@H](C)O1 [Doxorubicin, reference compound] | – | 0.29 ± 0.08 µM | 0.24 ± 0.03 µM | 0.59 ± 0.02 µM | – | – | – | – | – | – | – | –
3 | CC(=O)c1ccc(NC(=O)Cn2c(Br)nc3c2c(=O)n(C)c(=O)n3C)cc1 [Compound 22e, N-(4-acetylphenyl)-2-[8-bromo-1,3-dimethyl-2,6-dioxo-2,3-dihydro-1H-purin-7(6H)-yl]acetamide] | – | – | – | – | moderate growth inhibition | – | – | – | – | – | – | –
4 | CC(=O)c1ccc(N2CCN(CCCCn3c(=O)c(Br)cn4c5c(=O)n(C)c(=O)n(C)c5nc34)CC2)cc1 [Compound 14, 9-(4-(4-(4-Acetylphenyl)piperazin-1-yl)butyl)-7-bromo-1,3-dimethylpyrimido[2,1-f]purine-2,4,8(1H,3H,9H)-trione] | > 200 µM | > 200 µM | 96.5 ± 4.93 µM | 91 ± 5.86 µM | – | – | – | – | – | – | – | –
5 | CC(=O)c1ccc(N2CCN(CCCCCN3C(=O)NC4(CCc5ccccc54)C3=O)CC2)cc1 (racemic) [Compound 2, (R,S)-1-(5-(4-(4-Acetylphenyl)piperazin-1-yl)pentyl)-2′,3′-dihydrospiro[imidazolidine-4,1′-indene]-2,5-dione] | 43.1 ± 4.41 µM | 40.7 ± 3.54 µM | 22.6 ± 2.69 µM | 36.2 ± 4.98 µM | – | effective | moderate growth-inhibitory potency | 155.3 to 156.2 °C | – | – | – | –
6 | CC(=O)c1ccc(N2CCN(CCCCCN3C(=O)NC4(Cc5ccccc5C4)C3=O)CC2)cc1 [Compound 6, (R,S)-1-{5-[4-(4-Acetylophenyl)piperazyn-1-yl]pentyl}-1′,3′-dihydro-2H,5H-spiro[imidazolidine-4,2′-indene]-2,5-dione] | 78.3 ± 4.76 µM | 53.7 ± 7.78 µM | 159 ± 14.1 µM | 95.1 ± 8.4 µM | – | effective | – | 157.4 to 157.7 °C | – | – | – | –
7 | CC(=O)c1ccc(N2CCN(CCCCCn3c(=O)ccn4c5c(=O)n(C)c(=O)n(C)c5nc34)CC2)cc1 [Compound 13, 9-(5-(4-(4-Acetylphenyl)piperazin-1-yl)pentyl)-1,3-dimethylpyrimido[2,1-f]purine-2,4,8(1H,3H,9H)-trione] | > 200 µM | > 200 µM | 126 ± 14.3 µM | 94.2 ± 8.36 µM | – | – | – | – | – | – | – | –
8 | CC(=O)c1ccc(N2CCN(CCCCn3c(C)cn4c5c(=O)n(C)c(=O)n(C)c5nc34)CC2)cc1 [Compound 10, 8-(4-(4-(4-Acetylphenyl)piperazin-1-yl)butyl)-1,3,7-trimethyl-1H-imidazo[2,1-f]purine-2,4(3H,8H)-dione] | 131 ± 12.6 µM | > 200 µM | 96.1 ± 5.32 µM | 86.1 ± 9.85 µM | – | – | – | – | – | – | – | –
9 | CC(=O)c1ccc(N2CCN(CCCCn3ccn4c5c(=O)n(C)c(=O)n(C)c5nc34)CC2)cc1 [Compound 9, 8-(4-(4-(4-Acetylphenyl)piperazin-1-yl)butyl)-1,3-dimethyl-1H-imidazo[2,1-f]purine-2,4(3H,8H)-dione] | 145 ± 3.76 µM | 153 ± 11.3 µM | 72.8 ± 6.08 µM | 101 ± 15.4 µM | – | – | – | 252 to 253 °C | – | – | – | –
10 | CC(=O)c1ccc(N2CCN(CCCCN3C(=O)NC4(Cc5ccccc5C4)C3=O)CC2)cc1 [Compound 5, (R,S)-1-{4-[4-(4-Acetylophenyl)piperazyn-1-yl]butyl}-1′,3′-dihydro-2H,5H-spiro[imidazolidine-4,2′-indene]-2,5-dione] | > 200 µM | 102 ± 2.37 µM | > 200 µM | > 200 µM | – | – | – | 213.8 to 214.9 °C | – | – | – | –
11 | CC(=O)c1ccc(N2CCN(CCCCCN3C(=O)NC4(CCCc5ccccc54)C3=O)CC2)cc1 (racemic) [Compound 4, (R,S)-1-(5-(4-(4-Acetylphenyl)piperazin-1-yl)pentyl)-3′,4′-dihydro-2′H-spiro[imidazolidine-4,1′-naphthalene]-2,5-dione] | 12.9 ± 3.16 µM | 16.8 ± 2.37 µM | 36.8 ± 5.32 µM | 20.6 ± 3.35 µM | – | effective | – | 134.3 to 135.1 °C | no hemolytic activity | 149 ± 10.6 µM | 21.21% | no significant cytotoxic effect
12 | CC(=O)c1ccc(N2CCN(CCCCn3c(=O)ccn4c5c(=O)n(C)c(=O)n(C)c5nc34)CC2)cc1 [Compound 12, 9-(4-(4-(4-Acetylphenyl)piperazin-1-yl)butyl)-1,3-dimethylpyrimido[2,1-f]purine-2,4,8(1H,3H,9H)-trione] | 169 ± 22.9 µM | > 200 µM | 83.9 ± 4.2 µM | 71.9 ± 9.85 µM | – | – | – | – | – | – | – | –
13 | CC(=O)c1ccc(N2CCN(CCCCN3C(=O)NC4(CCCc5ccccc54)C3=O)CC2)cc1 (racemic) [Compound 3, (R,S)-1-(4-(4-(4-Acetylphenyl)piperazin-1-yl)butyl)-3′,4′-dihydro-2′H-spiro[imidazolidine-4,1′-naphthalene]-2,5-dione] | 104 ± 7.36 µM | 129 ± 10.8 µM | 114 ± 8.93 µM | 64.5 ± 6.76 µM | – | – | – | 168.8 to 170.2 °C | – | – | – | –
14 | CC(=O)c1ccc(N2CCN(CCCCN3C(=O)NC4(CCc5ccccc54)C3=O)CC2)cc1 (racemic) [Compound 1, (R,S)-1-(4-(4-(4-Acetylphenyl)piperazin-1-yl)butyl)-2′,3′-dihydrospiro[imidazolidine-4,1′-indene]-2,5-dione] | 67 ± 5.24 µM | 54.2 ± 3.89 µM | 41.8 ± 7.62 µM | 57.6 ± 5.86 µM | – | effective | – | 180.2 to 181.3 °C | – | – | – | –
